Data: patent US20060142254A1, “Antipyretic preparation containing xylitol” (ROQUETTE FRERES, priority 2001, published 2006)

Columns and labels:
[1] = system: rabbits having received a dose of endotoxins equal to 12 EU/kg; experiment: Pyrogen test in rabbits: lowering of the body temperature increase caused by intravenously injected endotoxins; assay type: in vivo, rabbit; settings: xylitol 1.5 g/kg, ASPEGIC 100 mg/kg where present; for Difference compared with the positive control of contamination (%): lowering of the endotoxin-induced temperature increase versus Batch 2, endotoxins 12 EU/kg i.v., significant when greater than 5%; for Temperature increase (° C.): mean temperature difference, 3 rabbits per batch, endotoxins 12 EU/kg intravenously
Text: Specifically, the pyrogen test in rabbits is the test described in the European Pharmacopoeia for verifying, in vivo, the apyrogenicity of certain molecules intended to be administered parenterally.
Thus, the applicant company, a producer of molecules intended to be administered parenterally, therefore used this test, which it has perfected, under the conditions described in the European Pharmacopoeia, in order to determine the body temperature-lowering effects of xylitol alone, and of xylitol combined with an antipyretic.
The experiment is carried out with batches of laboratory animals, in this instance here, rabbits.
The solutions to be injected are prepared in sterile water (water for injectable preparation—AGUETTANT).
The bottles of endotoxins (control standard Entotoxin or CSE—ENDOSAFE) contain 5 ml of endotoxins at 30 EU/ml with 120 ml of water for injectable preparation.
The contamination is calculated so as to observe a pyrogenic shock in the rabbit. This contamination is produced by intravenously injecting endotoxins in a proportion of 1.2 EU/ml, i.e. 12 EU/kg.
The antipyretic agent, in this instance aspirin, is prepared extemporaneously. 6.6 ml are added to 125 ml of endotoxins so as to obtain a dose equivalent to 100 mg/kg. The aspirin chosen is injectable ASPEGIC® (DL-lysine acetyl salicylate), manufactured by Laboratoires SYNTHELABO (LE PLESSIS ROBINSON), packed in proportion of 6 bottles of 2 g of powder and 6 vials of 5 ml of water for injectable preparation, for extemporaneous dissolution.
The xylitol is a batch of apyrogenic XYLISORB® manufactured by the applicant company. Apyrogenic dextrose monohydrate (marketed under the trademark LYCADEX® PF by the applicant company) is used as a control.
The rabbits are injected with a solution of xylitol at 150 g/l with water for injectable solution contaminated or not contaminated with the endotoxins. Five experiments are carried out with 3 rabbits per batch.

[2] = system: healthy rabbit; settings: intravenous administration; cited from earlier work

Compound	Difference compared with the positive control of contamination (%) [1]	Temperature increase (° C.) [1]	effect on body temperature of the laboratory animal [2]
CC(=O)Oc1ccccc1C(=O)O (racemic) [Batch 3, DL-lysine acetyl salicylate]	46%	1.57 °C	
OC[C@@H](O)[C@H](O)[C@@H](O)CO [Batch 4, xylitol]	7.5%	2.73 °C	lowers the body temperature
methylephedrine			lowers the body temperature
